Laboratory results from patent publication US20150004202A1, “ANTIBACTERIAL AGENT AGAINST PLANT DISEASE-CAUSING BACTERIA” (priority 2012, published 2015).
Read-outs that look alike come from different tables or passages of the source.

Assays:
[1] = system: field isolates listed in Table 6 (KNOB30 to KNOB110), bacteria pathogenic to crops; experiment: MIC of various amino acid-containing particles, HI medium; type: cell-based; conditions: 24 hours after addition
Description: (1) Freeze-stored 4 strains were seeded on heart infusion medium and PSA medium. (2) Seeded bacteria were cultured at 25° C. for 48 hours. (3) The antibacterial activity was assessed by measurement of the minimum inhibitory concentration (MIC) in accordance with a broth microdilution method. HI medium prepared without agar was used as a liquid medium. […] The above-described antibacterial agents were added to the liquid media at various concentrations, respectively, and the cultured bacteria described in (2) were inoculated thereto, followed by judgement of the results 24 hours and 48 hours after inoculation. The tests were repeated three times (n=3).
The antibacterial activity of nanoparticles containing Gly, Arg, Asp, or Ala produced above was examined. As test bacteria, field isolates listed in Table 6, tomato canker-causing bacteria standard strains (JCM1370, JCM1373), and kidney bean wilt-causing bacterium Curtobacterium flaccumfaciens pv. flaccumfaciens standard strain (JCM1347) were used.

[2] = system: Clavibacter michiganensis subsp. michiganensis (field isolates KNOB16, KNOB23), tomato canker-causing bacteria; experiment: MIC by broth microdilution (investigation of measurement conditions); type: cell-based
[3] = system: Ralstonia solanacearum (field isolates KNOB38, KNOB39), eggplant wilt-causing bacteria; experiment: microbe, parasite or virus in culture; type: cell-based
[4] = system: Curtobacterium flaccumfaciens pv. flaccumfaciens standard strain (JCM1347), kidney bean wilt-causing bacterium; experiment: MIC of various amino acid-containing particles, HI medium; type: cell-based; conditions: 24 hours after addition
[5] = system: tomato canker-causing bacteria standard strains (JCM1370, JCM1373); type: cell-based, Clavibacter michiganensis subsp. michiganensis; conditions: 24 hours after addition
[6] = 24 h, KNOB30, HI medium, read-out: MIC
[7] = 24 h, KNOB33, HI medium, read-out: MIC
[8] = 24 h, KNOB67, HI medium, read-out: MIC
[9] = 24 h, KNOB75, HI medium, read-out: MIC
[10] = 24 h, KNOB105, HI medium, read-out: MIC
[11] = 24 h, KNOB106, HI medium, read-out: MIC
[12] = 24 h, KNOB108, HI medium, read-out: MIC
[13] = 24 h, KNOB110, HI medium, read-out: MIC
[14] = Clavibacter michiganensis, 24 h, KNOB16, HI medium, 24 H later
[15] = Clavibacter michiganensis, 24 h, KNOB16, PSA medium, 24 H later
[16] = Clavibacter michiganensis, 24 h, KNOB23, HI medium, 24 H later
[17] = Clavibacter michiganensis, 24 h, KNOB23, PSA medium, 24 H later
[18] = Clavibacter michiganensis, 48 h, KNOB16, HI medium, 48 H later
[19] = Clavibacter michiganensis, 48 h, KNOB16, PSA medium, 48 H later
[20] = Clavibacter michiganensis, 48 h, KNOB23, HI medium, 48 H later
[21] = Clavibacter michiganensis, 48 h, KNOB23, PSA medium, 48 H later
[22] = Curtobacterium flaccumfaciens, read-out: MIC

C[C@H]1O[C@H](O[C@H]2[C@H](O)[C@@H](O)[C@@H](O)[C@H](O)[C@@H]2O)[C@@H](N)C[C@@H]1NC(=N)C(=O)O [KAS, kasugamycin]
8 µg/mL: MIC ([3]; KNOB38, HI medium, 24 H later) | MIC ([3]; KNOB39, HI medium, 24 H later)
128 µg/mL: MIC [4] | MIC ([5]; JCM1370, HI medium)
16 µg/mL: MIC ([2]; KNOB16, PSA medium, 24 H later) | MIC ([2]; KNOB16, PSA medium, 48 H later) | MIC ([2]; KNOB23, PSA medium, 24 H later) | MIC ([3]; KNOB38, HI medium, 48 H later) | MIC ([3]; KNOB39, HI medium, 48 H later)
64 µg/mL: MIC ([1]; KNOB33, HI medium) | MIC ([1]; KNOB64, HI medium) | MIC ([1]; KNOB67, HI medium) | MIC ([1]; KNOB75, HI medium) | MIC ([5]; JCM1373, HI medium)
32 µg/mL: MIC ([1]; KNOB30, HI medium) | MIC ([1]; KNOB105, HI medium) | MIC ([1]; KNOB106, HI medium) | MIC ([1]; KNOB108, HI medium) | MIC ([1]; KNOB110, HI medium) | MIC ([2]; KNOB16, HI medium, 24 H later) | MIC ([2]; KNOB16, HI medium, 48 H later) | MIC ([2]; KNOB23, HI medium, 24 H later) | MIC ([2]; KNOB23, HI medium, 48 H later) | MIC ([2]; KNOB23, PSA medium, 48 H later)

CCO [EtOH, ethanol]
60 µg/mL: MIC ([1]; KNOB75, HI medium) | MIC ([2]; KNOB16, PSA medium, 24 H later)
stronger than KAS and nanoparticles: antibacterial activity against eggplant wilt-causing bacteria compared with KAS ([3]; comparison of MIC values of Table 5)
7.5 µg/mL: MIC ([1]; KNOB106, HI medium) | MIC ([2]; KNOB16, PSA medium, 48 H later) | MIC ([2]; KNOB23, PSA medium, 24 H later) | MIC ([3]; KNOB38, HI medium, 24 H later) | MIC ([3]; KNOB39, HI medium, 24 H later) | MIC ([3]; KNOB39, HI medium, 48 H later)
30 µg/mL: MIC ([1]; KNOB30, HI medium) | MIC ([1]; KNOB33, HI medium) | MIC ([1]; KNOB64, HI medium) | MIC ([1]; KNOB67, HI medium) | MIC ([2]; KNOB16, HI medium, 48 H later) | MIC ([2]; KNOB23, HI medium, 48 H later) | MIC ([5]; JCM1373, HI medium)
15 µg/mL: MIC ([1]; KNOB105, HI medium) | MIC ([1]; KNOB108, HI medium) | MIC ([1]; KNOB110, HI medium) | MIC ([2]; KNOB16, HI medium, 24 H later) | MIC ([2]; KNOB23, HI medium, 24 H later) | MIC ([2]; KNOB23, PSA medium, 48 H later) | MIC ([3]; KNOB38, HI medium, 48 H later) | MIC [4] | MIC ([5]; JCM1370, HI medium)

CC1(C)S[C@@H]2[C@H](NC(=O)[C@H](N)c3ccccc3)C(=O)N2[C@H]1C(=O)O [ABPC, ampicillin]
< 0.25 µg/mL: MIC [1, 7] | MIC ([1]; 24 h, KNOB64, HI medium) | MIC [1, 8] | MIC [1, 10] | MIC [1, 11] | MIC [1, 13]
1 µg/mL: MIC [2, 19] | MIC ([5]; JCM1373, HI medium)
0.25 µg/mL: MIC [2, 14] | MIC [2, 16] | MIC [2, 18] | MIC [2, 20]
0.5 µg/mL: MIC [1, 6] | MIC [1, 9] | MIC [1, 12] | MIC [2, 15] | MIC [2, 17] | MIC [2, 21] | MIC ([3]; KNOB39, HI medium, 24 H later) | MIC ([3]; KNOB39, HI medium, 48 H later) | MIC ([3]; Ralstonia solanacearum, 24 h) | MIC ([3]; Ralstonia solanacearum, 48 h) | MIC ([5]; JCM1370, HI medium)
2 µg/mL: MIC [4, 22]

[H]/N=C(/N)N[C@H]1[C@H](O)[C@@H](O)[C@H](O[C@@H]2O[C@@H](C)[C@](O)(C=O)[C@H]2O[C@@H]2O[C@@H](CO)[C@H](O)[C@@H](O)[C@@H]2NC)[C@@H](N/C(N)=N\[H])[C@@H]1O [ST, streptomycin]
0.78 µg/mL: MIC [1, 7]
8 µg/mL: MIC [2, 19] | MIC ([3]; KNOB39, HI medium, 24 H later) | MIC ([3]; KNOB39, HI medium, 48 H later) | MIC ([3]; Ralstonia solanacearum, 24 h) | MIC ([3]; Ralstonia solanacearum, 48 h)
3.9 µg/mL: MIC ([5]; JCM1370, HI medium)
4 µg/mL: MIC [2, 15] | MIC [2, 17] | MIC [2, 21]
1 µg/mL: MIC [2, 16] | MIC [2, 20]
1.56 µg/mL: MIC [1, 6] | MIC ([1]; 24 h, KNOB64, HI medium) | MIC [1, 8] | MIC [1, 9] | MIC [1, 10] | MIC [1, 11] | MIC [1, 12] | MIC [1, 13]
0.39 µg/mL: MIC [4, 22]
7.8 µg/mL: MIC ([5]; JCM1373, HI medium)
2 µg/mL: MIC [2, 14] | MIC [2, 18]
